Legend:
WHHL rabbit model = assay: Evaluation of morbid alteration of aorta (Sudan dyeing), WHHL rabbit model; assay type: in vivo, WHHL type rabbits; conditions: WHHL rabbits
Text: 1. Animal used and feeding conditions In the test, female and male WHHL type rabbits (SPF: Kitayama Labels K.K.) which were eight weeks old at the time of arrival at the laboratory were subjected to quarantine and domestication and visually inspected as to the general condition and, after the absence of abnormality was confirmed, put to use. The body weights at the time of starting administration (at the age of nine weeks) were in the range of 1.5 - 1.9 kg in the case of male rabbits and in the range of 1.4 - 1.8 kg in the case of female rabbits. Throughout the entire duration of the test, the animals were raised as accommodated one each in hanger cages of aluminum installed on a stainless steel rack inside a clean feeding chamber set at a temperature in the range of 20 - 26°, a relative humidity in the range of 40 - 70%, a number of ventilations in the range of 10 - 20 turns/hour, and an illumination time within the range of 12 hours (7.00 - 19:00). […] The blood was centrifuged to separate blood serum and the blood serum was analyzed for the items shown in Table 5 by the use of an automatic analyzer (made by Hitachi. Ltd. and sold under the product code of "736-20"). The body weight of each rabbit was measured at the rate of once a week throughout the entire duration of the administration. […]

[1] = Lipoprotein analysis, WHHL rabbit model; assay type: in vivo, WHHL type rabbits; conditions: WHHL rabbits
Text: 1. Animal used and feeding conditions In the test, female and male WHHL type rabbits (SPF: Kitayama Labels K.K.) which were eight weeks old at the time of arrival at the laboratory were subjected to quarantine and domestication and visually inspected as to the general condition and, after the absence of abnormality was confirmed, put to use. The body weights at the time of starting administration (at the age of nine weeks) were in the range of 1.5 - 1.9 kg in the case of male rabbits and in the range of 1.4 - 1.8 kg in the case of female rabbits. Throughout the entire duration of the test, the animals were raised as accommodated one each in hanger cages of aluminum installed on a stainless steel rack inside a clean feeding chamber set at a temperature in the range of 20 - 26°, a relative humidity in the range of 40 - 70%, a number of ventilations in the range of 10 - 20 turns/hour, and an illumination time within the range of 12 hours (7.00 - 19:00). They were fed on a commercially available radioactively sterilized solid feed (made by Oriental Kobo K.K. and sold under the product code of "RC4") and they were left freely drinking the tap water delivered by an automatic water supplying device. 2. Setting dosage and method of administration The dosage of TMG was set at 800 mg/head/day. The TMG was solved in reagent grade ethanol. The produced solution was sprayed on the feed and the wet feed was left drying in the air. A mixed feed was prepared so as to contain 800 mg of TMG per 100 g of the feed. The mixed feed was given to the rabbits every morning at a rate of 100 g/day per head for 27 weeks for the sake of attaining oral consumption of the TMG. The feed for the control group was obtained by spraying ethanol alone on a feed and air-drying the wet feed. It was given to the rabbits of the control group at a rate of 100 g/day per head for 27 weeks. 3. […] The blood was centrifuged to separate blood serum and the blood serum was analyzed for the items shown in Table 5 by the use of an automatic analyzer (made by Hitachi. Ltd. and sold under the product code of "736-20"). The body weight of each rabbit was measured at the rate of once a week throughout the entire duration of the administration.
5. […] The blood serum was ultracentrifuged by Hatch and Lees method (Hatch, F. T., and Lees, R. S. (1968) Advan, Lipid Res. 6, 1-68) using a centrifuge (the rotor; Beckman 70.1 Ti) made by Beckman and sold under the product code of "L-70") to separate low specific gravity lipoprotein (1.006 < d < 1.063), with the cholesterol amount of the LDL fraction determined by the cholesterol oxidase DASO method and the amount of HDL-cholesterol determined by subjecting the blood serum to the phospho-tungstic acid magnesium salt precipitation method. […]

[2] = TMG 800 mg/head/day for 27 weeks
[3] = TMG 800 mg/head/day in feed, 26th week of administration, average ± SE

## Cc1c(C)c2c(c(C)c1O)CCC(C)(C[C@H]1O[C@H](CO)[C@@H](O)[C@H](O)[C@H]1O)O2 (stereo partly drawn) [TMG, 2-(α-D-glucopyranosyl)methyl-2,5,7,8-tetramethyl chroman-6-ol]
WHHL rabbit model; [2]
  occurrence of the atherosclerosis: significantly repressing
WHHL rabbit model; area occupied by deposited lipid in whole area of aorta, TMG 800 mg/head/day in feed, 27th week, control 64.6±3.9, p < 0.05
  Surface involvement (%): 52.4 ± 4.7 %
[1]; [2]
  activity of lowering the HDL-cholesterol: no activity
[1]; [3]
  HDL-CHO: 5 ± 1 mg/dL
  LDL-CHO: 746 ± 29 mg/dL
[1]; amount of TMG in LDL fraction by HPLC, TMG 800 mg/head/day in feed, 26th week of administration
  LDL-TMG: not detected

Reference: patent EP1151753B1, “PREVENTIVE AND THERAPEUTIC AGENTS FOR ARTERIOSCLEROSIS” (CCI CORPORATION, priority 1999, dated 2000)
